Results: patent US20080113868A1, “Colorant compositions and their use as pH sensitive color indicators” (priority 2006, published 2008)

What was measured:
Type in all cases: physicochemical
[1] = Lightfastness test (AATCC Test Method 16-1993 Option E), effect of ultraviolet light
Experimental: In order to determine the effect of ultraviolet light on the de-coloration rate over time of the colorant compositions of the present invention, the colorants were subjected to a lightfastness test. The test was performed according to AATCC Test Method 16-1993 Option E. Comparative Colorants 1-4 were also tested.
The results are provided as DE CMC values and represent the color difference from the standard or control, which was white paper. […] This value for each of the time intervals is then divided by the initial DE CMC value and multiplied by 100.

[2] = Test for pH effect on de-coloration: absorbance in aqueous pH buffer solutions
Experimental: Several 1% solutions of colorant were prepared and added to standard aqueous pH buffer solutions available from VWR and Aldrich to give absorbance of less than one. The colorant solution was tested for absorbance using a DU 7 Spectrophotometer.
In general, the pKa value represents the pH value when approximately half of the colorant is converted to its colorless form. […] “Comparative” is indicated as “Comp.”

[3] = Cellulose powder staining test; conditions: on cellulose powder after stirring with deionized water for one minute
Experimental: Colorant 8 was diluted in water to an absorbtivity value of 33.5 A/g/L; then 0.73 parts was dissolved in 5 parts of methanol to give a stock solution A. One part of this solution was mixed with 10 parts of cellulose microcrystalline powder available from Aldrich. The colored powder was dried in a beaker in a 100° C. oven over 20 minutes with occasional stirring. The dry powder was cooled and stirred with 50 parts deionized water for one minute. The slurry was filtered and the filtrate was collected. The percent retention of color on the cellulose powder was calculated from the ratio of the absorbance of one part stock solution A diluted with 50 parts water and the absorbance of the filtrate solution.
The same procedure was used with a stock solution of 0.73 parts dodecenyl succinic ester acid colorant, Inventive Colorant 9, dissolved in 5 ml of methanol. The percent retention of color was determined in the same manner.

[4] = ultraviolet light exposure time 0 hours
[5] = ultraviolet light exposure time 0 hours (initial)
[6] = ultraviolet light exposure time 2 hours
[7] = ultraviolet light exposure time 5 hours
[8] = ultraviolet light exposure time 10 hours
[9] = ultraviolet light exposure time 20 hours
[10] = pH value when approximately half of the colorant is converted to its colorless form

| Percent Color Fade [1, 4] [%] | DE CMC value (color difference from white paper) [1, 5] | DE CMC value (color difference from white paper) [1, 6] | Percent Color Fade [1, 6] [%] | DE CMC value (color difference from white paper) [1, 7] | Percent Color Fade [1, 7] [%] | DE CMC value (color difference from white paper) [1, 8] | Percent Color Fade [1, 8] [%] | DE CMC value (color difference from white paper) [1, 9] | Percent Color Fade [1, 9] [%] | Absorbance ([2]; aqueous buffer pH 2) | Absorbance ([2]; aqueous buffer pH 4) | Absorbance ([2]; aqueous buffer pH 6) | Absorbance ([2]; aqueous buffer pH 7) | Absorbance ([2]; aqueous buffer pH 8) | Absorbance ([2]; aqueous buffer pH 9) | Absorbance ([2]; aqueous buffer pH 10) | pKa Value [2, 10] | Percent Color Retention [3] [%] | Molecule | pKa [2, 10] |
| --- | --- | --- | --- | --- | --- | --- | --- | --- | --- | --- | --- | --- | --- | --- | --- | --- | --- | --- | --- | --- |
| 0 | 75.15 | 36.95 | 50.83 | 34.25 | 54.42 | 33.39 | 55.57 | 29.45 | 60.81 | 0.9589 | 0.955 | 0.9609 | 0.7309 | 0.2375 | 0.0424 | 0.0199 | 7.5 |  | 3,4-methylenedioxyphenyl-methyliumylidene-di(4,1-phenyleneamino)N,N-polyethyleneoxy(10), Chloride [Colorant 3] |  |
| 0 | 38.47 | 32.17 | 16.38 | 31.67 | 17.68 | 29.83 | 22.46 | 7.15 | 81.42 | 0.8266 | 0.8269 | 0.7735 | 0.5674 | 0.1928 | 0.0527 | 0.0312 | 7.3 |  | 3-Methoxy-4-Polyethyleneoxide(6)phenyl-methyliumylidene-di(4,1-phenyleneamino)N,N-polyethyleneoxy(10), Chloride [Colorant 5] |  |
| 0 | 58.19 | 52.89 | 9.11 | 49.83 | 14.37 | 46.51 | 20.07 | 40.21 | 30.90 | 0.764 | 0.7699 | 0.7253 |  | 0.7829 |  | 0.804 | >10 |  | CCN(Cc1cccc(S(=O)(=O)[O-])c1)c1ccc(C(=C2C=CC(=[N+](CC)Cc3cccc(S(=O)(=O)[O-])c3)C=C2)c2ccccc2S(=O)(=O)[O-])cc1.[Na+].[Na+] [Comp. Colorant 3, Acid Blue 9, reference compound] |  |
| 0 | 51.09 | 39.83 | 22.04 | 38.01 | 25.60 | 12.29 | 75.94 | 8.95 | 82.48 |  |  |  |  |  |  |  |  | 56 | Phenyl-methyliumylidene-di(4,1-phenyleneamino)N,N-polyethyleneoxy(5), Chloride [Colorant 8] |  |
|  |  |  |  |  |  |  |  |  |  |  |  |  |  |  |  |  |  | 92.6 | Phenyl-methyliumylidene-di(4,1-phenyleneamino)N,N-polyethyleneoxy(5)-tetrakisDodecenylsuccinate acid, inner salt [Colorant 9] |  |
|  |  |  |  |  |  |  |  |  |  | 0.95 | 0.95 | 0.82 | 0.35 | 0.05 | 0.005 | 0.005 | 6.6 |  | Phenyl-methyliumylidene-di(4,1-phenyleneamino)N,N-polyethyleneoxy(10), Chloride [Colorant 1] |  |

| Molecule | Percent Color Fade [1, 4] [%] | DE CMC value (color difference from white paper) [1, 5] | DE CMC value (color difference from white paper) [1, 6] | Percent Color Fade [1, 6] [%] | DE CMC value (color difference from white paper) [1, 7] | Percent Color Fade [1, 7] [%] | DE CMC value (color difference from white paper) [1, 8] | Percent Color Fade [1, 8] [%] | DE CMC value (color difference from white paper) [1, 9] | Percent Color Fade [1, 9] [%] | Absorbance ([2]; aqueous buffer pH 2) | Absorbance ([2]; aqueous buffer pH 4) | Absorbance ([2]; aqueous buffer pH 6) | Absorbance ([2]; aqueous buffer pH 7) | Absorbance ([2]; aqueous buffer pH 8) | Absorbance ([2]; aqueous buffer pH 9) | Absorbance ([2]; aqueous buffer pH 10) | pKa Value [2, 10] | Percent Color Retention [3] [%] | pKa [2, 10] |
| --- | --- | --- | --- | --- | --- | --- | --- | --- | --- | --- | --- | --- | --- | --- | --- | --- | --- | --- | --- | --- |
| 4-Methylphenyl-methyliumylidene-di(4,1-phenyleneamino)N,N-polyethyleneoxy(10), Chloride [Colorant 4] | 0 | 50.95 | 41.31 | 18.92 | 38.99 | 23.47 | 37.19 | 27.01 | 30.97 | 39.22 | 0.8881 | 0.8878 | 0.8304 | 0.569 | 0.154 | 0.0244 | 0.0079 | 7.3 |  |  |
| CN(C)c1ccc(C(=C2C=CC(=[N+](C)C)C=C2)c2ccccc2)cc1 [Comp. Colorant 4, Basic Green 4, reference compound] | 0 | 44.71 | 14.37 | 67.86 | 13.05 | 70.81 | 9.65 | 78.42 | 5.67 | 87.32 | 0.319 | 0.3843 | 0.4546 | 0.2678 | 0.0538 | 0.0361 | 0.0111 |  |  | 7 |
